As usually defined, the IC50 is the concentration that inhibits the measured activity by half. Read a high IC50 as weaker potency in that assay.

This assay deals with T1, Type-1 angiotensin II receptor (Oryctolagus cuniculus, UniProt P34976).
T1 sequence (P34976 whole entry): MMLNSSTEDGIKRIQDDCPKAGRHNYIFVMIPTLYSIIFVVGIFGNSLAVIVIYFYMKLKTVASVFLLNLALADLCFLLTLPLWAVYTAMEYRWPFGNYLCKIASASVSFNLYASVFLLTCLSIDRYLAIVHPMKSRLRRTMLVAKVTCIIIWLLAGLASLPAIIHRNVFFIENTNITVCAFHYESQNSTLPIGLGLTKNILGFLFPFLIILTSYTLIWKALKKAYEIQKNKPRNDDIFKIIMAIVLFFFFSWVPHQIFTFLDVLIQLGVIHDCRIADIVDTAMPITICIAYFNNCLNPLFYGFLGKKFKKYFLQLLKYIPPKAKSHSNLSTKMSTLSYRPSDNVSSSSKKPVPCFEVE
Put plainly: Antagonist activity at AT1 receptor in rabbit aorta membranes. The class given is cell membranes, Membrane.

`CCCCC(=O)Nc1ccc(C)c(-n2nc(CCCC)n(Cc3ccc(-c4ccccc4S(=O)(=O)NC(=O)c4ccccc4Cl)cc3)c2=O)c1` displayed a concentration for half-maximal inhibition (IC50) of 24 nM.

For the origin of these results see ChEMBL document CHEMBL2424659, “Comparative QSAR and pharmacophore analysis for a series of 2,4-dihydro-3H-1,2,4-triazol-3-ones derivatives as angiotensin II AT1 receptor antagonists” (Med Chem Res, 2013).
